# Test system: Isocitrate dehydrogenase [NADP] cytoplasmic (Homo sapiens), O75874 [R132H]
# Assay: Inhibition of IDH1 R132H mutant (unknown origin) assessed as reduction in NADPH consumption using alpha-KG as substrate at 38 uM incubated for 5 mins by diaphorase/resazurin-coupled system relative to control
# Chain of Isocitrate dehydrogenase [NADP] cytoplasmic (Homo sapiens), O75874 [R132H] (O75874 whole entry R132H): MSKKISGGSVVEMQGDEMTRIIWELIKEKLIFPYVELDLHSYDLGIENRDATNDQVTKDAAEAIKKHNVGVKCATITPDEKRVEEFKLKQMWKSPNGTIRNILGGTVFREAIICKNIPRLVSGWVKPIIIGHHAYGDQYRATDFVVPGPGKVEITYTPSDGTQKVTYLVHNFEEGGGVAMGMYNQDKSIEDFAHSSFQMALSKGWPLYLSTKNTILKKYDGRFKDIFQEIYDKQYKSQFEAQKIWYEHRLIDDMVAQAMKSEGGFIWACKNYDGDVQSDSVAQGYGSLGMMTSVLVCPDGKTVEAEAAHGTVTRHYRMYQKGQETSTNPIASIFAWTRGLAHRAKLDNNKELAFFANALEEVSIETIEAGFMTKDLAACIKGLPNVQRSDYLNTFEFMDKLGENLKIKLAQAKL
row,inhibition,Structure (SMILES)
1,88%,CCOc1ccccc1-n1c2c(cc(-c3nc(-c4ccc(Cl)cc4)cs3)c1=O)C(=O)CC(C)(C)C2
2,102%,CCc1cccc(CC)c1-n1c(CCOC)c(C(=O)N2CCNCC2)cc(-c2nc(-c3ccc(Cl)cc3)cs2)c1=O
3,31%,COc1ccc(OC)c(-n2c3c(cc(-n4cc(-c5ccccc5)cn4)c2=O)C(=O)CC(C)(C)C3)c1
4,88%,CCc1cccc(CC)c1-n1c(C)c(C(=O)N2CCN(C)CC2)cc(-c2nc(-c3ccc(Cl)cc3)cs2)c1=O
5,50%,COc1ccc(OC)c(-n2c3c(cc(-c4nc5ccc(Cl)cc5s4)c2=O)C(=O)CC(C)(C)C3)c1
6,96%,COc1ccc(OC)c(-n2c3c(cc(-c4nc(-c5ccc(Cl)cc5)cs4)c2=O)C=CC(C)(C)C3)c1
7,102%,COc1cccc(C(=O)O)c1-n1c2c(cc(-c3nc(-c4ccc(Cl)cc4)cs3)c1=O)C(=O)CC(C)(C)C2
8,92%,CCc1cccc(CC)c1-n1c(C)c(C(=O)NCCOC)cc(-c2nc(-c3ccc(Cl)cc3)cs2)c1=O
9,96%,CC1(C)CC(=O)c2cc(-c3nc(-c4ccc(Cl)cc4)cs3)c(=O)n(-c3ccccc3C(=O)O)c2C1
10,87%,COc1cccc(OC)c1-n1c2c(cc(-c3nc(-c4ccc(Cl)cc4)cs3)c1=O)C(=O)CC(C)(C)C2
11,106%,CCc1cccc(CC)c1-n1c(C)c(C(=O)NCC(=O)O)cc(-c2nc(-c3ccc(Cl)cc3)cs2)c1=O
12,104%,CCc1cccc(CC)c1-n1c(C)c(C(=O)NCCCNC)cc(-c2nc(-c3ccc(Cl)cc3)cs2)c1=O
13,82%,CCc1cccc(CC)c1-n1c(C)c(C(=O)N2CCOCC2)cc(-c2nc(-c3ccc(Cl)cc3)cs2)c1=O
14,101%,CCc1cccc(CC)c1-n1c(CCC(F)(F)F)c(C(=O)N2CCNCC2)cc(-c2nc(-c3ccc(Cl)cc3)cs2)c1=O
15,98%,CC1(C)CC(=O)c2cc(-c3nc(-c4ccc(Cl)cc4)cs3)c(=O)n(-c3ccccc3OC(F)(F)F)c2C1
16,35%,COc1ccc(OC)c(-n2c3c(cc(C(=O)NCc4ccc(Cl)cc4)c2=O)C(=O)CC(C)(C)C3)c1

# Test system: Isocitrate dehydrogenase [NADP] cytoplasmic (Homo sapiens), O75874 [R132C]
# Sequence (O75874 whole entry R132C): as the sequence (O75874 whole entry R132H) above, with H132C counted along it
# Assay: Inhibition of IDH1 R132C mutant (unknown origin) assessed as reduction in NADPH consumption using alpha-KG as substrate at 38 uM incubated for 5 mins by diaphorase/resazurin-coupled system relative to control
row,inhibition,Structure (SMILES)
1,81%,CCOc1ccccc1-n1c2c(cc(-c3nc(-c4ccc(Cl)cc4)cs3)c1=O)C(=O)CC(C)(C)C2
2,92%,CCc1cccc(CC)c1-n1c(CCOC)c(C(=O)N2CCNCC2)cc(-c2nc(-c3ccc(Cl)cc3)cs2)c1=O
3,86%,CCc1cccc(CC)c1-n1c(C)c(C(=O)N2CCN(C)CC2)cc(-c2nc(-c3ccc(Cl)cc3)cs2)c1=O
4,94%,COc1ccc(OC)c(-n2c3c(cc(-c4nc5ccc(Cl)cc5s4)c2=O)C(=O)CC(C)(C)C3)c1
5,76%,COc1ccc(OC)c(-n2c3c(cc(-c4nc(-c5ccc(Cl)cc5)cs4)c2=O)C=CC(C)(C)C3)c1
6,108%,COc1cccc(C(=O)O)c1-n1c2c(cc(-c3nc(-c4ccc(Cl)cc4)cs3)c1=O)C(=O)CC(C)(C)C2
7,56%,CCc1cccc(CC)c1-n1c(C)c(C(=O)NCC(C)C)cc(-c2nc(-c3ccc(Cl)cc3)cs2)c1=O
8,102%,CCc1cccc(CC)c1-n1c(C)c(C(=O)NCCOC)cc(-c2nc(-c3ccc(Cl)cc3)cs2)c1=O
9,105%,CC1(C)CC(=O)c2cc(-c3nc(-c4ccc(Cl)cc4)cs3)c(=O)n(-c3ccccc3C(=O)O)c2C1
10,75%,COc1cccc(OC)c1-n1c2c(cc(-c3nc(-c4ccc(Cl)cc4)cs3)c1=O)C(=O)CC(C)(C)C2
11,87%,CCc1cccc(CC)c1-n1c(C)c(C(=O)NCC(=O)O)cc(-c2nc(-c3ccc(Cl)cc3)cs2)c1=O
12,95%,CCc1cccc(CC)c1-n1c(C)c(C(=O)NCCCNC)cc(-c2nc(-c3ccc(Cl)cc3)cs2)c1=O
13,71%,CCc1cccc(CC)c1-n1c(C)c(C(=O)N2CCOCC2)cc(-c2nc(-c3ccc(Cl)cc3)cs2)c1=O
14,82%,CCc1cccc(CC)c1-n1c(CCC(F)(F)F)c(C(=O)N2CCNCC2)cc(-c2nc(-c3ccc(Cl)cc3)cs2)c1=O
15,78%,CC1(C)CC(=O)c2cc(-c3nc(-c4ccc(Cl)cc4)cs3)c(=O)n(-c3ccccc3OC(F)(F)F)c2C1

# Biological target: Isocitrate dehydrogenase [NADP] cytoplasmic (Homo sapiens, UniProt O75874, R132C)
# Sequence (O75874 2-414 R132C limits assumed): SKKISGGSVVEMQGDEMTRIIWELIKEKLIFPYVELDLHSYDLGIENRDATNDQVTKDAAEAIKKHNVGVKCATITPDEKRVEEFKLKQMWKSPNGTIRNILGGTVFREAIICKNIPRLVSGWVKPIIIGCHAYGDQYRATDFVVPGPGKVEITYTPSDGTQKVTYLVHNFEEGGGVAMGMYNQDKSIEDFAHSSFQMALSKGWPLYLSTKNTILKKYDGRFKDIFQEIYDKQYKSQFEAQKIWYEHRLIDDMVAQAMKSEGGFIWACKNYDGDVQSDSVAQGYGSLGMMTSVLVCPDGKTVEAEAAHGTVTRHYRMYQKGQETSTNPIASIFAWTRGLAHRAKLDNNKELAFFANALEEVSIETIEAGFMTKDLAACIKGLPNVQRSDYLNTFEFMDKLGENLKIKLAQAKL
# Assay: Inhibition of IDH1 R132C mutant (unknown origin) assessed as reduction in NADPH consumption using alpha-KG as substrate incubated for 5 mins by diaphorase/resazurin-coupled system
row,IC50,Structure (SMILES)
1,0.41 µM,CCOc1ccccc1-n1c2c(cc(-c3nc(-c4ccc(Cl)cc4)cs3)c1=O)C(=O)CC(C)(C)C2
2,0.34 µM,CCc1cccc(CC)c1-n1c(CCOC)c(C(=O)N2CCNCC2)cc(-c2nc(-c3ccc(Cl)cc3)cs2)c1=O
3,> 38 µM,COc1ccc(OC)c(-n2c3c(cc(-n4cc(-c5ccccc5)cn4)c2=O)C(=O)CC(C)(C)C3)c1
4,1.2 µM,CCc1cccc(CC)c1-n1c(C)c(C(=O)N2CCN(C)CC2)cc(-c2nc(-c3ccc(Cl)cc3)cs2)c1=O
5,2.5 µM,COc1ccc(OC)c(-n2c3c(cc(-c4nc5ccc(Cl)cc5s4)c2=O)C(=O)CC(C)(C)C3)c1
6,0.13 µM,CCc1cccc(CC)c1-n1c(C=C(C)C)c(C(=O)N2CCNC(C(F)(F)F)C2)cc(-c2nc(-c3ccc(Cl)cc3)cs2)c1=O (stereo not drawn)
7,0.06 µM,CCc1cccc(CC)c1-n1c(C=C(C)C)c(C(=O)N2CCNC(CO)C2)cc(-c2nc(-c3ccc(Cl)cc3)cs2)c1=O (stereo not drawn)
8,1.7 µM,COc1ccc(OC)c(-n2c3c(cc(-c4nc(-c5ccc(Cl)cc5)cs4)c2=O)C=CC(C)(C)C3)c1
9,2 µM,COc1cccc(C(=O)O)c1-n1c2c(cc(-c3nc(-c4ccc(Cl)cc4)cs3)c1=O)C(=O)CC(C)(C)C2
10,0.81 µM,CCc1cccc(CC)c1-n1c(C)c(C(=O)NCC(C)C)cc(-c2nc(-c3ccc(Cl)cc3)cs2)c1=O
11,0.73 µM,CCc1cccc(CC)c1-n1c(C)c(C(=O)NCCOC)cc(-c2nc(-c3ccc(Cl)cc3)cs2)c1=O
12,11 µM,CC1(C)CC(=O)c2cc(-c3nc(-c4ccc(Cl)cc4)cs3)c(=O)n(-c3ccccc3C(=O)O)c2C1
13,> 38 µM,COc1ccc(OC)c(-n2c(C)ccc(-c3nc(-c4ccc(Cl)cc4)cs3)c2=O)c1
14,1.6 µM,COc1cccc(OC)c1-n1c2c(cc(-c3nc(-c4ccc(Cl)cc4)cs3)c1=O)C(=O)CC(C)(C)C2
15,11 µM,CCc1cccc(CC)c1-n1c(C)c(C(=O)NCC(=O)O)cc(-c2nc(-c3ccc(Cl)cc3)cs2)c1=O
16,0.91 µM,CCc1cccc(CC)c1-n1c(C)c(C(=O)NCCCNC)cc(-c2nc(-c3ccc(Cl)cc3)cs2)c1=O
17,4.1 µM,CCc1cccc(CC)c1-n1c(C)c(C(=O)N2CCOCC2)cc(-c2nc(-c3ccc(Cl)cc3)cs2)c1=O
18,> 38 µM,COc1ccc(-n2c3c(cc(-c4nc(-c5ccc(Cl)cc5)cs4)c2=O)C(=O)CC(C)(C)C3)c(OC)c1
19,0.6 µM,CCc1cccc(CC)c1-n1c(CCC(F)(F)F)c(C(=O)N2CCNCC2)cc(-c2nc(-c3ccc(Cl)cc3)cs2)c1=O
20,2.2 µM,CCc1cccc(C)c1-n1c(C=C(C)C)c(C(=O)N2CCNCC2)cc(-c2nc(-c3ccc(Cl)cc3)cs2)c1=O
21,> 38 µM,COc1ccc(OC)c(-n2c3c(cc(-c4nc5cc(Cl)ccc5s4)c2=O)C(=O)CC(C)(C)C3)c1
22,0.28 µM,CC1(C)CC(=O)c2cc(-c3nc(-c4ccc(Cl)cc4)cs3)c(=O)n(-c3ccccc3OC(F)(F)F)c2C1
23,> 38 µM,COc1ccc(OC)c(-n2c3c(cc(C(=O)NCc4ccc(Cl)cc4)c2=O)C(=O)CC(C)(C)C3)c1

# Biological target: Isocitrate dehydrogenase [NADP] cytoplasmic (Homo sapiens, UniProt O75874, R132H)
# Sequence (O75874 2-414 R132H limits assumed): as the sequence (O75874 2-414 R132C limits assumed) above, with C131H counted along it
# Assay: Inhibition of IDH1 R132H mutant (unknown origin) assessed as reduction in NADPH consumption using alpha-KG as substrate incubated for 5 mins by diaphorase/resazurin-coupled system
row,IC50,Structure (SMILES)
1,0.14 µM,CCc1cccc(CC)c1-n1c(CCOC)c(C(=O)N2CCNCC2)cc(-c2nc(-c3ccc(Cl)cc3)cs2)c1=O
2,2.9 µM,CCc1cccc(CC)c1-n1c(C)c(C(=O)N2CCN(C)CC2)cc(-c2nc(-c3ccc(Cl)cc3)cs2)c1=O
3,0.36 µM,CCc1cccc(CC)c1-n1c(C=C(C)C)c(C(=O)N2CCNC(C(F)(F)F)C2)cc(-c2nc(-c3ccc(Cl)cc3)cs2)c1=O (stereo not drawn)
4,0.049 µM,CCc1cccc(CC)c1-n1c(C=C(C)C)c(C(=O)N2CCNC(CO)C2)cc(-c2nc(-c3ccc(Cl)cc3)cs2)c1=O (stereo not drawn)
5,3 µM,COc1ccc(OC)c(-n2c3c(cc(-c4nc(-c5ccc(Cl)cc5)cs4)c2=O)C=CC(C)(C)C3)c1
6,0.91 µM,COc1cccc(C(=O)O)c1-n1c2c(cc(-c3nc(-c4ccc(Cl)cc4)cs3)c1=O)C(=O)CC(C)(C)C2
7,> 38 µM,CCc1cccc(CC)c1-n1c(C)c(C(=O)NCC(C)C)cc(-c2nc(-c3ccc(Cl)cc3)cs2)c1=O
8,2.1 µM,CCc1cccc(CC)c1-n1c(C)c(C(=O)NCCOC)cc(-c2nc(-c3ccc(Cl)cc3)cs2)c1=O
9,4.6 µM,CC1(C)CC(=O)c2cc(-c3nc(-c4ccc(Cl)cc4)cs3)c(=O)n(-c3ccccc3C(=O)O)c2C1
10,> 38 µM,COc1ccc(OC)c(-n2c(C)ccc(-c3nc(-c4ccc(Cl)cc4)cs3)c2=O)c1
11,2.4 µM,COc1cccc(OC)c1-n1c2c(cc(-c3nc(-c4ccc(Cl)cc4)cs3)c1=O)C(=O)CC(C)(C)C2
12,1.2 µM,CCc1cccc(CC)c1-n1c(C)c(C(=O)NCC(=O)O)cc(-c2nc(-c3ccc(Cl)cc3)cs2)c1=O
13,1 µM,CCc1cccc(CC)c1-n1c(C)c(C(=O)NCCCNC)cc(-c2nc(-c3ccc(Cl)cc3)cs2)c1=O
14,4.2 µM,CCc1cccc(CC)c1-n1c(C)c(C(=O)N2CCOCC2)cc(-c2nc(-c3ccc(Cl)cc3)cs2)c1=O
15,> 38 µM,COc1ccc(-n2c3c(cc(-c4nc(-c5ccc(Cl)cc5)cs4)c2=O)C(=O)CC(C)(C)C3)c(OC)c1
16,0.24 µM,CCc1cccc(CC)c1-n1c(CCC(F)(F)F)c(C(=O)N2CCNCC2)cc(-c2nc(-c3ccc(Cl)cc3)cs2)c1=O
17,0.27 µM,CCc1cccc(C)c1-n1c(C=C(C)C)c(C(=O)N2CCNCC2)cc(-c2nc(-c3ccc(Cl)cc3)cs2)c1=O
18,> 38 µM,COc1ccc(OC)c(-n2c3c(cc(-c4nc5cc(Cl)ccc5s4)c2=O)C(=O)CC(C)(C)C3)c1
19,0.57 µM,CC1(C)CC(=O)c2cc(-c3nc(-c4ccc(Cl)cc4)cs3)c(=O)n(-c3ccccc3OC(F)(F)F)c2C1
